In brackets after ≈: the same amount, converted by molar mass.
Columns and labels:
[1] = test system: E. faecalis ATCC 29212; test: direct antimicrobial activity (disc-diffusion, MIC, MBC); format: cell-based; conditions: Enterococcus faecalis, ATCC29212
Method: (§1) Direct antimicrobial activity against Gram-negative and Gram-positive bacterial strains, as well as against yeast, was examined as previously described by the disc-diffusion test, the MIC determination assay, the MBC (for bacteria), and the MFC (for yeasts) determination tests. All the above-mentioned tests were performed according to EUCAST [71, 72] and CLSI [73, 74, 75, 76, 77] recommendations. The following reference agents were used: nitrofurantoin (for Gram-negative rods), linezolid (for Gram-positive bacteria), and fluconazole (in the case of fungi). The new aromatic diboronic acids were dissolved in DMSO (Sigma, St. Louis, MO, USA). In the disc-diffusion test, the concentration of new agents was 0.4 mg per disc.

[2] = test system: E. faecium ATCC 6057; test: as above; format: cell-based; conditions: Enterococcus faecium, ATCC6057
Method: as §1

[3] = test system: S. aureus ATCC 43300 MRSA; test: as above; format: cell-based; conditions: Staphylococcus aureus; for zone of inhibition at 0.4 mg/disc: 0.4 mg per disc, 9 mm disc (linezolid 0.03 mg, 6 mm disc), - no zone, read-out: Diameter of inhibition zone
Method: as §1

[4] = test system: S. aureus ATCC 6538P; test: as above; format: cell-based; conditions: Staphylococcus aureus, ATCC6538P; for zone of inhibition at 0.4 mg/disc: 0.4 mg per disc, 9 mm disc (linezolid 0.03 mg, 6 mm disc), - no zone, read-out: Diameter of inhibition zone
Method: as §1

[5] = test system: S. epidermidis ATCC 12228; test: as above; format: cell-based; conditions: Staphylococcus epidermidis, ATCC12228; for zone of inhibition at 0.4 mg/disc: 0.4 mg per disc, 9 mm disc (linezolid 0.03 mg, 6 mm disc), - no zone, read-out: Diameter of inhibition zone
Method: as §1

[6] = test system: B. subtilis ATCC 6633; test: direct antimicrobial activity (disc-diffusion); format: cell-based; conditions: Bacillus subtilis, ATCC6633; 0.4 mg per disc, 9 mm disc (linezolid 0.03 mg, 6 mm disc); - no zone; read-out: Diameter of inhibition zone
Method: as §1

[7] = test system: C. parapsilosis ATCC 22019; test: antifungal activity (disc-diffusion, MIC, MFC); format: cell-based, Candida parapsilosis; conditions: Lodderomyces parapsilosis, ATCC22019; fluconazole by Etest
Method: as §1

[8] = test system: C. guilliermondii IBA 155; test: antifungal activity (disc-diffusion, MIC, MFC); format: cell-based, Candida guilliermondii; conditions: Meyerozyma guilliermondii, IBA155; fluconazole by Etest
Method: as §1

[9] = test system: C. krusei ATCC 6258; test: antifungal activity (disc-diffusion, MIC, MFC); format: cell-based, Candida krusei; conditions: Pichia kudriavzevii, ATCC6258; fluconazole by Etest
Method: as §1

[10] = test system: C. albicans ATCC 90028; test: antifungal activity (disc-diffusion, MIC, MFC); format: cell-based; conditions: Candida albicans, ATCC90028; fluconazole by Etest
Method: as §1

[11] = test system: C. tropicalis ATCC 750; test: antifungal activity (disc-diffusion, MIC, MFC); format: cell-based; conditions: Candida tropicalis, ATCC750; fluconazole by Etest
Method: as §1

[12] = test system: C. tropicalis IBA 171; test: antifungal activity (disc-diffusion, MIC, MFC); format: cell-based; conditions: Candida tropicalis, IBA171; fluconazole by Etest
Method: as §1

[13] = test system: S. cerevisiae ATCC 9763; test: antifungal activity (disc-diffusion, MIC, MFC); format: cell-based; conditions: Saccharomyces cerevisiae, ATCC9763; fluconazole by Etest
Method: as §1

[14] = MTT-based viability assay; format: cell-based; conditions: human, MRC-5 human fibroblasts, 72 h, read-out: Viability of MRC-5 cells (% of viable cells ± SD)
Method: MRC-5 human fibroblasts (ECACC) were cultured in MEME, Minimum Essential Medium Eagle (Merck) supplemented with 10% fetal bovine serum (Merck), 2 mM l-glutamine, antibiotics (100 U/mL penicillin, 100 μg/mL streptomycin, Merck) and 1% non-essential amino acids (Merck). Cells were grown in 75 cm^2 cell culture flasks (Sarstedt) in a humidified atmosphere of CO2/air (5/95%) at 37 °C. MTT-based viability assay was conducted as described previously. Optical densities were measured at 570 nm using a BioTek microplate reader. All measurements were carried out in three replicates, and the results were expressed as a percent of viable cells versus control cells.

[15] = test system: E. coli 76 KPC-2(+); test: MIC of tested agent alone, microdilution; format: cell-based; conditions: Escherichia coli; read-out: MIC of agent alone
Method: (§2) To examine the ability of tested agents to inhibit various carbapenemases and AmpC-enzymes, their synergy with antibiotics against β-lactamase-producing strains was assessed by checkerboard microdilution assay, with slight modification. Checkerboards were prepared in microtiter plates, with seven two-fold dilutions of β-lactams (1–64 mg/L) in the rows and three two-fold dilutions of tested agents and PBA (4–16 mg/L) in the columns. Tested agents’ concentrations were limited to the concentrations at which the newest commercially available BLIs (vaborbactam, relebactam, and avibactam) are used in susceptibility testing. Plates were inoculated and incubated as in the MIC microdilution assay. Parallel, MICs of tested agents and PBA alone were determined by the microdilution assay. Following the incubation, antibiotic MICs in the presence of each agent’s concentration were determined. Moreover, for the first well without growth found in each checkerboard row and column along the growth/non-growth interface, the fractional inhibitory concentration index (FICI) was calculated using the formula below:FICI = [(MIC of antibiotic in combination)/(MIC of antibiotic alone)] + [(MIC of the tested agent in combination)/(MIC of tested agent alone)].

[16] = test system: E. coli 77 CMY-2(+); test: MIC of tested agent alone, microdilution; format: cell-based; conditions: Escherichia coli; read-out: MIC of agent alone
Method: as §2

[17] = test system: K. pneumoniae 81 KPC-3(+); test: MIC of tested agent alone, microdilution; format: cell-based; conditions: Klebsiella pneumoniae; read-out: MIC of agent alone
Method: as §2

[18] = test system: K. pneumoniae 83 KPC-3(+), CTX-M-3(+); test: MIC of tested agent alone, microdilution; format: cell-based; conditions: Klebsiella pneumoniae; read-out: MIC of agent alone
Method: as §2

[19] = test system: K. pneumoniae ATCC BAA-1705 KPC-2(+); test: MIC of tested agent alone, microdilution; format: cell-based; conditions: Klebsiella pneumoniae, ATCCBAA1705; read-out: MIC of agent alone
Method: as §2

[20] = test system: P. aeruginosa MUW 700 AmpC(+); test: MIC of tested agent alone, microdilution; format: cell-based; conditions: Pseudomonas aeruginosa; read-out: MIC of agent alone
Method: as §2

[21] = test system: K. pneumoniae ATCC BAA 1705 KPC-2-positive; test: combination disc test CDT-KPC; format: cell-based; conditions: Klebsiella pneumoniae, BAA1705; agent 0.3 mg per disc; read-out: Diameter of inhibition zone, MEM-10 disc with agent
[22] = test system: P. aeruginosa MUW 700 cAmpC-positive; test: combination disc test CDT-AmpC; format: cell-based; conditions: Pseudomonas aeruginosa; agent 0.3 mg per disc; read-out: Diameter of inhibition zone, CAZ-30 disc with agent
[23] = test system: E. coli 77 CMY-2-positive; test: combination disc test CDT-AmpC; format: cell-based; conditions: Escherichia coli; agent 0.3 mg per disc; read-out: Diameter of inhibition zone, CAZ-30 disc with agent
[24] = test system: K. pneumoniae ATCC 700603 ESBL-positive; test: combination disc test CDT-ESBL; format: cell-based; conditions: Klebsiella pneumoniae, ATCC700603; agent 0.3 mg per disc; read-out: Diameter of inhibition zone, CAZ-30 disc with agent
[25] = 0.4 mg per disc, 9 mm disc (linezolid 0.03 mg, 6 mm disc), - no zone, read-out: Diameter of inhibition zone

Row | MIC [1] [µg/mL] | MIC [2] [µg/mL] | MIC [3] [µg/mL] | MIC [4] [µg/mL] | MIC [5] [µg/mL] | MIC [7] [µg/mL] | MIC [8] [µg/mL] | MIC [9] [µg/mL] | MIC [10] [µg/mL] | MIC [11] [µg/mL] | MIC [12] [µg/mL] | MIC [13] [µg/mL] | Structure (SMILES) | zone of inhibition at 0.4 mg/disc [3] [mm] | zone of inhibition at 0.4 mg/disc [4] [mm] | zone of inhibition at 0.4 mg/disc [6] [mm] | viability at 72 h, 12.5 mg/L [14] [%] | viability at 72 h, 25 mg/L [14] [%] | viability at 72 h, 50 mg/L [14] [%] | MBC [4] [µg/mL] | zone of inhibition at 0.4 mg/disc [5] [mm] | further results
1 | 400 (≈ 1330 µM) | 400 (≈ 1330 µM) | 400 (≈ 1330 µM) | 400 (≈ 1330 µM) | 200 (≈ 663 µM) | > 400 | > 400 | > 400 | > 400 | > 400 | > 400 | > 400 | OB(O)c1cc(C(F)(F)F)c(B(O)O)cc1C(F)(F)F [1h] | 14 | 13 | 12 | 101 ± 4.3 | 104 ± 5 | 98.8 ± 3.2 | – | – | –
2 | > 400 | 200 (≈ 818 µM) | 200 (≈ 818 µM) | 50 (≈ 204 µM) | 100 (≈ 409 µM) | > 400 | > 400 | 400 (≈ 1640 µM) | > 400 | > 400 | > 400 | 200 (≈ 818 µM) | OB(O)c1ccc(Br)c(B(O)O)c1 [2f] | 13 | 14 | 22 | 103 ± 8.8 | 92.1 ± 0.9 | 76.2 ± 0.7 | 400 (≈ 1640 µM) | 25 | MIC [15]: > 400 µg/mL; MIC [16]: > 400 µg/mL; MIC [17]: > 400 µg/mL; MIC [18]: > 400 µg/mL; MIC [19]: > 400 µg/mL; MIC [20]: > 400 µg/mL; zone of inhibition at 300 µg/disc [21]: 6 mm; zone of inhibition at 300 µg/disc [22]: 21 mm; zone of inhibition at 300 µg/disc [23]: 19 mm; zone of inhibition at 300 µg/disc [24]: 15 mm
3 | 2 (≈ 5.93 µM) | 2 (≈ 5.93 µM) | 2 (≈ 5.93 µM) | 1 (≈ 2.96 µM) | 1 (≈ 2.96 µM) | – | – | – | – | – | – | – | CC(=O)NC[C@H]1CN(c2ccc(N3CCOCC3)c(F)c2)C(=O)O1 [LIN, linezolid, reference compound] | 25 | 25 | 30 | – | – | – | > 128 | 26 | MBC [1]: > 128 µg/mL; zone of inhibition at 0.4 mg/disc [1, 25]: 15 mm; MBC [2]: > 128 µg/mL; zone of inhibition at 0.4 mg/disc [2, 25]: 14 mm; MBC [3]: > 128 µg/mL; MBC [5]: > 128 µg/mL
